Test system: bovine viral diarrhea virus (BVDV)
Assay: Hypericin-luciferase inactivation of BVDV spiked into human red blood cell concentrate, titration of unwashed and washed samples (CPE, TCID50)
Assay type: cell-based
Settings: for Unwashed Titer / Combined VRF (Titer of unwashed RBC control − Titer of washed sample) / Unwashed VRF (Titer of RBC control − Titer of sample) / Washed Titer / Washed VRF (Titer of RBC control − Titer of sample): Table 1 (Example 1), hypericin low=40, high=200 μg/mL, luciferase low=0.8, high=4.0 μM; for Unwashed Titer: RBCC, RT 2 hours in the dark, luciferin 0.08 mM, ATP 0.8 mM
Procedure: This dose range had not been tested in the previous experiments. Ten different combinations of DMEM (—Ca++, —Mg++), RBCC, virus, hypericin, luciferin, adenosine triphosphate (ATP) and luciferase were prepared to all contain equivalent titers of BVDV calculated to be 6.48 log 10TCID50/mL (logs) based on the titer of the original virus stock. The concentrations of hypericin tested were 40, 80 and 120 μg/mL. Luciferase was tested at 0.16, 0.32 and 0.8 μM. Luciferin and ATP were present at 80 and 800 μM respectively.
The compounds were mixed and incubated at RT for 2 hours in the dark followed by titration of unwashed and washed samples as previously described. Washing rows of wells with dilutions 1 and 2 was performed 2 days post-infection. Final CPEs were read 10 days post-infection.

| SMILES | Unwashed Titer | Combined VRF (Titer of unwashed RBC control − Titer of washed sample) | Unwashed VRF (Titer of RBC control − Titer of sample) | Washed Titer | Washed VRF (Titer of RBC control − Titer of sample) | optimal dose of hypericin (with different doses of luciferase, for BVDV) |
| --- | --- | --- | --- | --- | --- | --- |
| Cc1cc(O)c2c(=O)c3c(O)cc(O)c4c5c(O)cc(O)c6c(=O)c7c(O)cc(C)c8c1c2c(c34)c(c78)c65 [HH-LN, hypericin] | 3.10 log10TCID50/mL | 3.87 log TCID50 | 3.25 log TCID50 | 2.48 log10TCID50/mL | 1.50 log TCID50 | – |
| Cc1cc(O)c2c(=O)c3c(O)cc(O)c4c5c(O)cc(O)c6c(=O)c7c(O)cc(C)c8c1c2c(c34)c(c78)c65 [HL-LN, hypericin] | 3.48 log10TCID50/mL | >4.01 log TCID50 | 2.87 log TCID50 | <2.34 log10TCID50/mL | >1.64 log TCID50 | – |
| Cc1cc(O)c2c(=O)c3c(O)cc(O)c4c5c(O)cc(O)c6c(=O)c7c(O)cc(C)c8c1c2c(c34)c(c78)c65 [hypericin, reference compound] | – | – | – | – | – | 40 µg/mL |

From patent US20140080114A1, “METHODS, KITS AND COMPOSITIONS FOR INACTIVATION OF VIRAL AGENTS IN WHOLE BLOOD AND RED BLOOD CELL CONCENTRATES” (APHIOS CORPORATION, priority 2012, published 2014)
